From ChEMBL document CHEMBL1147218, “New bioactive diterpene polyesters from Euphorbia decipiens” (J Nat Prod, 2003)

Assays:
[1] = target: Prolyl endopeptidase (Elizabethkingia meningoseptica, UniProt P27028); experiment: Inhibition of Flavobacterium meningosepticum […]
[2] = test system: Saccharomyces cerevisiae; experiment: DNA damaging activity against wild type (Rad+) yeast assessed as drug level required to produce 12 mm zone of inhibition; assay type: functional
[3] = test system: Saccharomyces cerevisiae; experiment: DNA damaging activity against DNA repair-deficient RS 322YK (rad 52Y) yeast assessed as drug level required to produce 12 mm zone of inhibition; assay type: functional

Sequence of Prolyl endopeptidase (P27028 21-705 limits assumed): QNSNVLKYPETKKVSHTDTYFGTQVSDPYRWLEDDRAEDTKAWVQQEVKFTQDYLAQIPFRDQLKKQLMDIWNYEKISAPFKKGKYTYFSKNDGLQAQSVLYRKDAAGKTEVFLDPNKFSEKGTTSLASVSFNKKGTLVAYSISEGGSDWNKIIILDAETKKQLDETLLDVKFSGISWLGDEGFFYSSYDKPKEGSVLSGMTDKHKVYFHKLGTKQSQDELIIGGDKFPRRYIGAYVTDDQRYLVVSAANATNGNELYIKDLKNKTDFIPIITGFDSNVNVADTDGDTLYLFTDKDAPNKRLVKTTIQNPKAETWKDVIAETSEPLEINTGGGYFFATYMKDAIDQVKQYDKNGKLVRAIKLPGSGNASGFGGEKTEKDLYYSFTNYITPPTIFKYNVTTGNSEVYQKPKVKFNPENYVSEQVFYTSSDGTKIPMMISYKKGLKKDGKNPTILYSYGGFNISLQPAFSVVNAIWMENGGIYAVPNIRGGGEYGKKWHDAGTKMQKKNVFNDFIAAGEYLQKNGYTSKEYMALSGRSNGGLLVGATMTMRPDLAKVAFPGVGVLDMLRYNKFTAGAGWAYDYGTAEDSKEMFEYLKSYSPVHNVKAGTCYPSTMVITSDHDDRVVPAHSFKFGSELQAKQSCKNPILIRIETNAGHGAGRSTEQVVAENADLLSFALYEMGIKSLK

Structure (SMILES)	IC50 [1]	IC12 [2]	IC12 [3]
CC(=O)OC[C@@]12[C@H](OC(C)=O)[C@H]3[C@@H](OC(C)=O)[C@@H](C)C[C@]3(O)C(=O)[C@@]3(C)OC(C)(C)[C@@H](C=C[C@H]1OC(=O)c1ccccc1)[C@H]23	16.9 µM		
CC(=O)OC[C@@]12[C@H](OC(C)=O)[C@H]3[C@@H](OC(C)=O)[C@@H](C)C[C@]3(OC(C)=O)C(=O)[C@@]3(C)OC(C)(C)[C@@H](C=C[C@H]1OC(=O)c1ccccc1)[C@H]23		1090 µg/mL	750 µg/mL
CC[C@@]1(O)C(=O)OCc2c1cc1n(c2=O)Cc2cc3ccccc3nc2-1 [CAMPTOTHECIN]		75 µg/mL	12 µg/mL
